Reference: US5047555A, “4-aminophenol derivatives and processes for preparing the same” (Tanabe Seiyaku Co., Ltd., priority 1988, dated 1991)

Biological target: T1, 5-lipoxygenase (Rattus norvegicus, UniProt P12527)
T1 construct: An enzyme solution containing 5-lipoxygenase was prepared from cultured basophilic leukemia cell strain RBL-1 cells; endogenous in cells; host or cells: RBL-1 cells
T1 sequence (P12527 1-673): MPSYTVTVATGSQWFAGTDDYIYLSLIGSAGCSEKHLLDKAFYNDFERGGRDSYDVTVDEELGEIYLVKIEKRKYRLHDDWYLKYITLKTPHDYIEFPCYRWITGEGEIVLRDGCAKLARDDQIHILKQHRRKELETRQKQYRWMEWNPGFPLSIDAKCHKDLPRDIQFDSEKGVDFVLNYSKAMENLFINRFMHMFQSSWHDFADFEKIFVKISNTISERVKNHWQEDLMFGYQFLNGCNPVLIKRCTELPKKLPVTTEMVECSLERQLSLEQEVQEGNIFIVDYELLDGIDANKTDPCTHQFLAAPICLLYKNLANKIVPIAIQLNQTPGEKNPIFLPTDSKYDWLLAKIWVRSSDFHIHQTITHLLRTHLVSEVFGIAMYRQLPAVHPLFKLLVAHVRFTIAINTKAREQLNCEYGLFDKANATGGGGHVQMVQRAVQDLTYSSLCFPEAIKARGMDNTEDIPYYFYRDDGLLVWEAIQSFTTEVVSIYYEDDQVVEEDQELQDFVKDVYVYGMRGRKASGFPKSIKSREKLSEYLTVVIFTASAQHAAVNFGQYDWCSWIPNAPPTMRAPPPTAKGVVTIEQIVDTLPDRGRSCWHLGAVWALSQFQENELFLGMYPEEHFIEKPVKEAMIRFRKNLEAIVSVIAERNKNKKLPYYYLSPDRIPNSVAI
Assay: 5-Lipoxygenase inhibitory activity (5-HETE formation, enzyme solution from RBL-1 cells)
Type: biochemical
Conditions: radiolabelled arachidonic acid substrate, indomethacin, calcium chloride, ATP; RBL-1 enzyme
Experimental: An enzyme solution containing 5-lipoxygenase was prepared from cultured basophilic leukemia cell strain RBL-1 cells, and the reaction was carried out with radiolabelled arachidonic acid as the substrate in the presence of indomethacin, calcium chloride, adenosine triphosphate and the substance to be tested. A predetermined amount of the reaction mixture was spotted on a thin layer, separated by development, and then the radioactivity of the 5-HETE (5-hydroxyeicosatetraenic acid) fraction of the enzyme reaction product was measured to give the index of the 5-lipoxygenase activity. […] [Method of M. Furukawa et al. described in Biochimica et Biophysica acta, vol. 795, p. 458 (1984)]

| IC50 [nM] | SMILES |
| --- | --- |
| 210 | Cc1cc(NC(=O)c2cc3ccccc3s2)cc(C)c1O |
| 440 | Cc1cc(NC(=O)/C=C/c2cccn2C)cc(C)c1O |
| 400 | CC=CC=CC(=O)Nc1cc(C)c(O)c(C)c1 |
| 150 | CC(C)c1cc(NC(=O)c2cccs2)cc(C(C)C)c1O [4-(2-thienylcarbonyl)-amino-2,6-diisopropylphenol] |
| 300 | CCCCCCC(=O)Nc1cc(C)c(O)c(C)c1 [both CH3, (CH2)5 CH3] |
| 330 | CCCCCCCC(=O)Nc1cc(C)c(O)c(C)c1 [both CH3, (CH2)6 CH3] |
| 400 | CCCCCCCCC(=O)Nc1cc(C)c(O)c(C)c1 [both CH3, (CH2)7 CH3, 4-nonanoylamino-2,6-dimethylphenol] |
| 810 | Cc1cc(NC(=O)c2ccsc2)cc(C)c1O [drawing 7] |
| 270 | Cc1ccc(C(=O)Nc2cc(C)c(O)c(C)c2)s1 [drawing 8] |
| 200 | Cc1cc(NC(=O)/C=C/c2cccs2)cc(C)c1O [drawing 11] |
| 760 | Cc1cc(NC(=O)CCc2cccs2)cc(C)c1O [drawing 13] |
| 240 | COc1cccc(/C=C/C(=O)Nc2cc(C)c(O)c(C)c2)c1 [drawing 16] |
| 220 | COc1ccc(/C=C/C(=O)Nc2cc(C)c(O)c(C)c2)cc1 [drawing 17] |
| 150 | COc1ccc(/C=C(\C)C(=O)Nc2cc(C)c(O)c(C)c2)cc1 [drawing 19] |
| 200 | CC(=O)Oc1ccc(CCC(=O)Nc2cc(C)c(O)c(C)c2)cc1OC(C)=O [drawing 20] |
| 250 | COc1ccc(CCC(=O)Nc2cc(C)c(O)c(C)c2)cc1 [drawing 21] |
| 150 | COc1ccc(/C=C(\C)C(=O)Nc2cc(C(C)C)c(O)c(C(C)C)c2)cc1 [drawing 22] |

Test system: Leukotriene C4 formation
Assay: Leukotriene C4 formation inhibitory activity (sensitized guinea pig lung fragments)
Type: cell-based
Conditions: Cavia porcellus; 10^-5 M; ovalbumin-sensitized guinea pig lung fragments, ovalbumin challenge in vitro, radioimmunoassay
Experimental: Leukotriene C4 formation inhibitory activity
Lung fragments of guinea pig sensitized with ovalbumin were treated with the test compound and challenged with ovalbumin in vitro. After solvent extraction, leukotriene C4 in the supernatant was determined by radioimmunoassay. The leukotriene C4 formation inhibitory activity of the test compound is expressed as % inhibition at the sample concentration of 10^-5 M.

| SMILES | inhibition at 10 µM [%] |
| --- | --- |
| Cc1cc(NC(=O)c2cccs2)cc(C)c1O | 76.6 |
| COc1cccc(CCC(=O)Nc2cc(C)c(O)c(C)c2)c1 | 66.9 |
| COc1ccc(CC(C)C(=O)Nc2cc(C)c(O)c(C)c2)cc1 (stereo not shown) | 58.9 |
| COc1ccc(/C=C(\C)C(=O)Nc2cc(C(C)(C)C)c(O)c(C(C)(C)C)c2)cc1 | 58.3 |
| CC(C)c1cc(NC(=O)c2cccs2)cc(C(C)C)c1O [4-(2-thienylcarbonyl)-amino-2,6-diisopropylphenol] | 79.9 |
| Cc1cc(NC(=O)c2ccsc2)cc(C)c1O [drawing 25] | 62.9 |
| Cc1ccc(C(=O)Nc2cc(C)c(O)c(C)c2)s1 [drawing 27] | 59 |
| Cc1cc(NC(=O)CCc2cccs2)cc(C)c1O [drawing 28] | 45.8 |
| Cc1cc(NC(=O)/C=C/c2cccs2)cc(C)c1O [drawing 30] | 65 |
| COc1ccc(CCC(=O)Nc2cc(C)c(O)c(C)c2)cc1 [drawing 33] | 49.3 |
| COc1cccc(/C=C/C(=O)Nc2cc(C)c(O)c(C)c2)c1 [drawing 35] | 46 |
| COc1ccc(/C=C(\C)C(=O)Nc2cc(C)c(O)c(C)c2)cc1 [drawing 37] | 58.1 |

Test system: Leukotriene B4 formation
Assay: Leukotriene B4 formation inhibitory activity (guinea pig neutrophil suspension)
Type: cell-based
Conditions: Cavia porcellus, 10^-6 M, guinea pig neutrophils, calcium ionophore A23187 and arachidonic acid, HPLC
Experimental: Leukotriene B4 formation inhibitory activity
A neutrophil suspension, prepared by administration of casein intraperitoneally to guinea pig, was treated with the test compound and challenged with calcium ionophore A23187 and arachidonic acid. After solvent extraction, leukotriene B4 was assayed by high performance liquid chromatography. The leukotriene B4 formation inhibitory activity of the test compound is expressed as % inhibition at the sample concentration of 10^-6 M. [Method of Douglass et al. described in Prostaglandins vol. 31, p. 358 (1986)]

| SMILES | inhibition at 1 µM [%] |
| --- | --- |
| CC(=O)Oc1ccc(/C=C/C(=O)Nc2cc(C)c(O)c(C)c2)cc1OC(C)=O | 82 |
| CC(C)=CCC/C(C)=C/C(=O)Nc1cc(C)c(O)c(C)c1 | 82.5 |
| CC(C)=CCC/C(C)=C\C(=O)Nc1cc(C)c(O)c(C)c1 | 95.3 |
| CC(C)=CCC/C(C)=C/CC/C(C)=C/C(=O)Nc1cc(C)c(O)c(C)c1 | 90.5 |
| CC(C)=CCC/C(C)=C/CC/C(C)=C\C(=O)Nc1cc(C)c(O)c(C)c1 | 98.5 |
| CCCCCCCC(=O)Nc1cc(CC)c(O)c(CC)c1 [both C2 H5, (CH2)6 CH3] | 85.6 |
| CCCCCCC(=O)Nc1cc(C)c(O)c(C)c1 [both CH3, (CH2)5 CH3] | 53.1 |
| CCCCCCCC(=O)Nc1cc(C)c(O)c(C)c1 [both CH3, (CH2)6 CH3] | 59.7 |
| CCCCCCCCC(=O)Nc1cc(C)c(O)c(C)c1 [both CH3, (CH2)7 CH3, 4-nonanoylamino-2,6-dimethylphenol] | 57.3 |
| CCCCCCCC(=O)Nc1cc(C(C)C)c(O)c(C(C)C)c1 [both CH(CH3)2, (CH2)6 CH3] | 69.5 |
| COc1cccc(/C=C/C(=O)Nc2cc(C)c(O)c(C)c2)c1 [drawing 42] | 62.6 |
| COc1ccc(/C=C/C(=O)Nc2cc(C)c(O)c(C)c2)cc1 [drawing 43] | 65.6 |
| CC(=O)Oc1ccc(CCC(=O)Nc2cc(C)c(O)c(C)c2)cc1OC(C)=O [drawing 45] | 81.9 |
| COc1ccc(/C=C(\C)C(=O)Nc2cc(C(C)C)c(O)c(C(C)C)c2)cc1 [drawing 47] | 88.8 |

Test system: lipoxygenase
Assay: not given
Conditions: cited from earlier work

| SMILES | lipoxygenase inhibitory activity |
| --- | --- |
| CCCc1cc(F)c2oc(C(=O)OCc3ccccc3)c(C)c2c1O | lipoxygenase inhibitory activity |
| CCCc1cc(F)c2oc(C(=O)OCC)c(C)c2c1O | lipoxygenase inhibitory activity |
| Cc1cnc(Nc2ccc(O)c(C(C)(C)C)c2C(C)(C)C)s1 [4-[2-(5-methyl)thiazolylamino]-2,3-di-tert-butylphenol] | lipoxygenase inhibitory activity |

Test system: PCA (passive cutaneous anaphylaxis)
Assay: not given
Conditions: cited from earlier work

| SMILES | immune control activity or PCA inhibitory activity |
| --- | --- |
| COc1cc(C(=O)Nc2cc(Cl)c(O)c(Cl)c2)cc(OC)c1OC [2,6-dichloro-4-(3,4,5-trimethoxybenzoyl)aminophenol] | immune control activity or PCA (passive cutaneous anaphylaxis) inhibitory activity |

Test system: not given
Assay: not given
Conditions: stabilizer for polymers; cited from earlier work

| SMILES | antioxidant activity |
| --- | --- |
| CCCCCCCCCCCC(=O)Nc1cc(CC)c(O)c(C(C)(C)C)c1 [4-(lauroylamino)-2-ethyl-6-tert-butylphenol] | antioxidant activity |
| CCCCCCCCCCCCCCCCCC(=O)Nc1cc(C(C)(C)C)c(O)c(C(C)(C)C)c1 [4-(stearoylamino)-2,6-di-tert-butylphenol] | antioxidant activity |
